Laboratory results taken from article PMC9861162 (Pharmaceuticals, 2022).
Several values for one entry are separate records, joined by “and”; a condition that tells them apart may be missing. Identical values can stand only once. Like-named read-outs stand apart in the source and are kept apart here.

Columns and labels:
[1] = dapaconazole PBPK model in dogs (Simcyp); parameters: species or system dog
Protocol: A PBPK model was first developed in dogs using a hybrid PBPK approach employing the in vivo clearance reported in dogs. The input parameters are described in Table 4.
Then, the full PBPK model, which used the method 2 (Rodgers and Rowland [15]) to predict the volume of distribution at steady-state conditions (Vss) was evaluated.
All modeling was conducted using Simcyp modeling software (v. 20, Certara, Princeton, NJ, US). […] All of the input parameters are described in Table 4.
The Simcyp minimal PBPK, which considers all organs other than the intestine and liver as a single compartment, plus a SAC distribution model were selected. […] The Vss was predicted using Rodgers and Rowland’s equations (method 2). A Kp scalar was determined to best describe the observed dog data using a sensitivity analysis approach. The final values of Vsac, kin, and kout were determined from the parameter estimation approach selecting the best values to describe the shape of the observed PK profile. For the elimination model development, the in vivo systemic clearance values reported in dogs were employed in a middle-out approach. […] The PBPK model was evaluated through a visual comparison of observed in vivo plasma concentration–time profiles with the concentrations predicted in dogs, and the PK parameters within observed/predicted ratios between 0.5-fold to 2-fold were considered acceptable.

[2] = system: several pathogenic fungi, such as Tricophyton verrucosum, Tricophyton rubrum, Trycophyton mantagrophutes, Microsporum gypseum, Microsporum canis, and …; details: ref [1]-[7]; cited from earlier work
[3] = system: pityriasis versicolor; details: ref [5]; cited from earlier work
[4] = parameters: method as in Antunes et al. [14]; details: dog plasma; ref Antunes et al. [14]; cited from earlier work
[5] = system: interdigital tinea pedis; details: ref [3]; cited from earlier work
[6] = parameters: method as in Drugbank; details: PBPK input; ref Drugbank; cited from earlier work
[7] = molecular target: T1, CYP1A2 (Homo sapiens, UniProt P05177); test: clinical DDI prediction, static (IVIVE) and dynamic (PBPK) models, CYP1A2
T1 sequence (P05177 1-516): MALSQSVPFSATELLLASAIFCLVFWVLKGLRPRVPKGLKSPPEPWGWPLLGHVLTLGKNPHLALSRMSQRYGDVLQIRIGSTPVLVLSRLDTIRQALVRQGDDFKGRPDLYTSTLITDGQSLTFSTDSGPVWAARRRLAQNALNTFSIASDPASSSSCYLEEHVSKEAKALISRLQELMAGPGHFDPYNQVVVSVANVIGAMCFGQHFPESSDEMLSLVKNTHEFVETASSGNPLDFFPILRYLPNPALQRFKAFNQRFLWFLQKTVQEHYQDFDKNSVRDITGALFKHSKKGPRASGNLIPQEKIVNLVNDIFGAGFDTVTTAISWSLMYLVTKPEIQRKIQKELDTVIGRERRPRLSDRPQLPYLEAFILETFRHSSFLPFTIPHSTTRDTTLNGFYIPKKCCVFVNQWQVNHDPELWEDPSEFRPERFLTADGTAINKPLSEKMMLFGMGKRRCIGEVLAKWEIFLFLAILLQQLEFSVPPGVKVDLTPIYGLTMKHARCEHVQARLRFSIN
Source text: The Ki input values were estimated from the ratio IC50/2. Since the IC50 experiments were designed considering the substrate concentration equal to Km, the simplification of Ki as IC50/2 was considered for a competitive inhibition reaction.
The following Equation (4) was considered for the potential DDI evaluation:(4) AUCR=AUCwith inhibitor/AUCwithout inhibitor where AUCR is the area under the curve ratio, AUCwith inhibitor is AUC in the presence of the inhibitor, and AUCwithout inhibitor is AUC in the absence of the inhibitor.

[8] = molecular target: CYP2C9 (Homo sapiens, UniProt P11712); details: microsomes
Chain of CYP2C9 (P11712 whole entry, canonical isoform): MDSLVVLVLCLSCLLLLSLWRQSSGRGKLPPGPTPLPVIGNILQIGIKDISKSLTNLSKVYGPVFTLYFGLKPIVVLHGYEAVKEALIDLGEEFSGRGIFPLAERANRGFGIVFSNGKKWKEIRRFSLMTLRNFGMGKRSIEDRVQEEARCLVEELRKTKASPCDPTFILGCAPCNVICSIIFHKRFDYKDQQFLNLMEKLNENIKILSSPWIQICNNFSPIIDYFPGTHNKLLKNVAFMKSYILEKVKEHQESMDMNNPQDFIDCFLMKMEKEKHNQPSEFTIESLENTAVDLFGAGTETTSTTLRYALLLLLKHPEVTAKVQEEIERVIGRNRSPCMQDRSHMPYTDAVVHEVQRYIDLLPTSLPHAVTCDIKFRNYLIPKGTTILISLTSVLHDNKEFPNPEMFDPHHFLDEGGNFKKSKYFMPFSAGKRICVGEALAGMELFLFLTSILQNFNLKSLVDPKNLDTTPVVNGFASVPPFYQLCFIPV
Protocol: The incubation conditions employed for each CYP450 isoform were performed, as previously described.
Buffer solution (0.1 mol/L aqueous phosphate buffer, pH 7.4, 69 µL), NADPH-regenerating solutions (10 µL solution A: 26 mmol/L NADP+, 66 mmol/L glucose-6-phosphate, and 66 mmol/L MgCl2; 2 µL solution B: 40 U/mL glucose-6-phosphate dehydrogenase in 5 mmol/L sodium citrate), and deionized water (69 µL) were added, in a total volume of 150 μL. The tubes were vortex-mixed and preincubated with continuous gentle shaking for 5 min at 37 °C in a shaking water bath. Reactions were initiated by the addition of 50 µL of HLM solution in the tubes which were gently mixed by hand and incubated with continuous gentle shaking at 37 °C. Aliquots of 200 µL ice-cold solvent (Table 1) containing IS (1 µg/mL) were added. […] The supernatants were transferred to glass autosampler vials and submitted to LC-MS/MS analysis (5 µL injection volume) to monitor the substrate metabolite formation.

[9] = parameters: method as in Antunes et al. [14]; details: ref Antunes et al. [14], cited from earlier work
[10] = system: tinea cruris; details: topical treatment of tinea cruris; ref [4]; cited from earlier work
[11] = dogs, observed, ref Palo et al. [7], cited from earlier work

For `FC(F)(F)c1ccc(COC(Cn2ccnc2)c2ccc(Cl)cc2Cl)cc1` (stereo not drawn) [dapaconazole, Dapaconazole], which “AUC0-t Observed/predicted ratio” value ([1]; intravenous 1 mg/kg) is on record?
Its value is 0.83.

What about the “CL Observed/predicted ratio” value ([1]; intravenous 1 mg/kg) of the same compound?
Its value is 1.29.

And the “Cmax Observed/predicted ratio” value ([1]; intravenous 1 mg/kg)?
Its value is 0.92.

What about the “t1/2 Terminal Observed/predicted ratio” value ([1]; intravenous 1 mg/kg) of the same compound?
The value was 1.08.

What about the “AUC0-t Observed/predicted ratio” value ([1]; intravenous 2 mg/kg) of the same compound?
Its value is 1.27.

And the “CL Observed/predicted ratio” value ([1]; intravenous 2 mg/kg)?
The value was 1.09.

What about the “Cmax Observed/predicted ratio” value ([1]; intravenous 2 mg/kg) of the same compound?
Its value is 1.78.

And the “t1/2 Terminal Observed/predicted ratio” value ([1]; intravenous 2 mg/kg)?
Its value is 1.29.

And the “AUC0-t Observed/predicted ratio” value ([1]; intravenous 20 mg/kg)?
Its value is 0.65.

And the “CL Observed/predicted ratio” value ([1]; intravenous 20 mg/kg)?
The value was 1.54.

And the “Cmax Observed/predicted ratio” value ([1]; intravenous 20 mg/kg)?
The value was 0.58.

And the “t1/2 Terminal Observed/predicted ratio” value ([1]; intravenous 20 mg/kg)?
Its value is 1.04.

And the antifungal activity [2]?
The antifungal activity was “antifungal activity”.

What about the “efficacy compared with ketoconazole” value [3] of the same compound?
Its value is “noninferior efficacy”.

And the Unbound fraction [4]?
Its Unbound fraction is 0.037.

And the “efficacy compared with ketoconazole” value [5]?
The value was “noninferior efficacy”.

And the “log P” value [6]?
The value was 5.63.

And the “pKa (monoprotic base)” value [6]?
Its value is 6.77.

What about the “DDI potential from Ki and R1 values” ([7]; CYP1A2) of the same compound?
Its value is “moderate potential”.

What about the R1 ([7]; reversible inhibition, R1=1+(Imax,u/Ki,u), substrate phenacetin) of the same compound?
Its R1 is 1.20.

What about the Ki [8] of the same compound?
The Ki was 110 nM.

What about the “fu,inc” value ([9]; dog liver microsome incubation) of the same compound?
The value was 0.97.

And the CL int. mic. ([9]; dog liver microsomes)?
Its CL int. mic. is 257.97 µL/min/mg and 258 µL/min/mg.

And the “efficacy compared with miconazole” value [10]?
The value was “noninferior efficacy”.

And the AUC0-t ([11]; intravenous 1 mg/kg)?
The AUC0-t was 255.0 ng·h/mL.

And the CL ([11]; intravenous 1 mg/kg)?
Its CL is 700.0 mL/min.

What about the Cmax ([11]; intravenous 1 mg/kg) of the same compound?
The Cmax was 373.2 ng/mL.

And the “t1/2 Terminal” value ([11]; intravenous 1 mg/kg)?
Its value is 2.1 h.

And the AUC0-t ([11]; intravenous 2 mg/kg)?
Its AUC0-t is 779.9 ng·h/mL.

What about the CL ([11]; intravenous 2 mg/kg) of the same compound?
The CL was 591.7 mL/min.

And the Cmax ([11]; intravenous 2 mg/kg)?
The Cmax was 1444.7 ng/mL.

And the “t1/2 Terminal” value ([11]; intravenous 2 mg/kg)?
Its value is 2.5 h.

And the AUC0-t ([11]; intravenous 20 mg/kg)?
Its AUC0-t is 4780.1 ng·h/mL.

What about the CL ([11]; intravenous 20 mg/kg) of the same compound?
Its CL is 700.0 mL/min.

What about the Cmax ([11]; intravenous 20 mg/kg) of the same compound?
The Cmax was 4708.3 ng/mL.

What about the “t1/2 Terminal” value ([11]; intravenous 20 mg/kg) of the same compound?
Its value is 2.3 h.
